This is an account of results in patent US20180344798A1, “TOPICALLY ACTIVE PEPTIDES FOR TREATING COSMETIC AND DERMATOLOGICAL CONDITIONS” (priority 2017, published 2018).

Several values for one entry are separate records, joined by “and”; a condition that tells them apart may be missing. Equal values may be shown once.

Data set [1] relates to response to bradykinin. Conditions: amounts up to 50,000 times the standard challenge of bradykinin; cited from earlier work.
The subject of data set [2] is TLR4-mediated maturation of dendritic cells. The protocol:
To determine whether all-D-TTNYT (SEQ ID NO: 1) blocks maturation of dendritic cells human PBMC's were isolated from peripheral blood by Ficoll-Paque centrifugation and then monocytes were isolated by negative selection using immunobeads (Miltenyi). Human monocyte derived immature dendritic cells (iDCs) were then generated by treating monocytes with GM-CSF/IL4 for 5 days.
The iDCs were treated with all-D-TTNYT (SEQ ID NO: 1) at 10^−12 M for 30 min. After 30 min LPS (100 ng/ml) was added to the cells and cells were analyzed after 48 hrs for surface maturation markers using fluorescent labeled antibodies by flow cytometry. […] The surface markers control T cell activation and localization in tissues. DCs, like microglia, are derived from differentiated monocytes and serve as the innate and adaptive sentinel cells of the skin and brain, respectively. Blockade of DC or microglial activation would suppress inflammation.

For data set [3] the following is noted: topical oil/water lotion 50 μg/ml, 2× per day, 28 days. How it is done:
Self-reported “Severity Scores” on a scale of 1-10 (with 10 being most severe) were recorded in a daily symptom report form to record the symptom score and compliance. The change from baseline is plotted for the day 0, 7, 14, 21, 28 and 35 (one week “off” treatment) symptom scores.
Topical administration of all-D-TTNYT (SEQ ID NO: 1) was formulated in an oil/water lotion consisting of deionized water, caprylic/capric triglyceride, polyglyceryl-6-stearate, polyglyceryl-6-behenate, cetearyl alcohol, and glyceryl stearate.

Data set [4] relates to DC maturation caused by LL37 (IGF-1R).
Data set [5] concerns rodent spinal cord tissue. Conditions: Rat, Padi, 2012; cited from earlier work.
Data set [6] has as its system plasma inflammatory cytokines. Conditions: Ruff, cited from earlier work.
Data set [7] has as its system normal human epidermal keratinocytes. To be noted: Hu, Paoletti, 2013; cited from earlier work.
The conditions of data set [8]: route of dosing not described; U.S. Pat. No. 5,798,335; cited from earlier work.
The conditions of data set [9]: aqueous solutions; U.S. Pat. No. 7,390,788; cited from earlier work.
The mark [10] stands for this setting: Hu dendritic cells, peptide 10^-12 M 30 min, then LPS 100 ng/ml, 48 hrs, unpublished.
Setting [11] is: Hu, DAPTA administered for 7 weeks.

With all-D-bradykinin, in data set [1], the “inhibition of the response to bradykinin or bradykinin-like effect” value was “neither any inhibition of the response to bradykinin, or any bradykinin-like effect”.

all-D-TTNYT: in [2] (setting [10]), the CD58 change entry was “decrease”, the CD86 change entry is “decrease”, the DR change entry is given as “decrease” and the ICAM1 change result is listed as “decrease”. For the same substance, the “expression of maturation markers CD86, HLA-DR, CD58 and ICAM1” value in data set [2] (iDCs pre-treated with peptide, then LPS, flow cytometry) is given as “reduces expression of all the maturation markers”. Besides, the “self-reported Severity Scores in dermatocosmetic conditions” value in data set [3] (five subjects, scale 1-10) is “improved”. Further, the “appearance of rosacea, atopic dermatitis, and psoriasis” value in data set [3] (subject reports) was “improvements in the appearance of rosacea, atopic dermatitis, and psoriasis”. Also, in data set [4], the “effect on DC maturation of the four markers caused by LL37” value is recorded as “no effect”. Moreover, in data set [5], the IL-1β change entry is “decrease” and the IL-6 change entry is on record as “decrease”.

As for all-D-TTNYT-NH2, where the note is “after topical lotion 50 μg/ml, 2× per day to feet, 28 days, measured fixed distance”, the “Timed Walk, Post” value stood at 24 s. In addition, the “Pain Score, Post” value (after topical lotion 50 μg/ml, 2× per day to feet, 28 days, scale 1-10, per subject) is reported as 3. Further, the “Timed Walk, Pre” value (before treatment (baseline), measured fixed distance) amounted to 48 s. In addition, the “Pain Score, Pre” value (before treatment (baseline), self-reported scale 1-10, per subject) is 7 and 6. Further, the “pain sensitivity on self-reported Severity Scores” value (two subjects with diabetic neuropathy symptoms, topical lotion 50 μg/ml, 2× per day) is given as “Reduced pain sensitivity”.

In the case of Dalal-peptide T-amide [DAPTA], in data set [6] (setting [11]), the IL-1 change result was “decrease”, the IL-6 change result is “decrease”, the IL-8 change result was “decrease” and the TNFα change entry is “decrease”. The “anti-inflammatory cytokine IL-10 (M2-type) change” value in data set [6] (human subjects, DAPTA for 7 weeks) is reported as “increased”. Moreover, in data set [7], the ICAM1 change result is “decrease”, the IL-6 change result was “decrease”, the IL-8 change entry is “decrease” and the IL-23 change result is recorded as “decrease”. In addition, the pSTAT3 change entry in data set [7] was “decrease”. Moreover, the “improvement of eczema/dermatitis in dogs” value in data set [8] is “Improvement in two dogs with dermatitis, mild improvement in five cases of erythema, and no improvement in ten cases”. The “aggregation and loss of potency upon storage” value in [9] was “high propensity for DAPTA to aggregate and lose potency”.
